Measured values reported in US20070292351A1, “Assay for efficacy of histone deacetylase inhibitors” (Methylgene, Inc., priority 2006, published 2007).

How the values were obtained:
[1] = test system: peripheral white blood cells from healthy volunteers; test: Semi-quantitative PCR of MT3 in peripheral white blood cells treated ex vivo; type: cell-based, human; conditions: 24 hr or 48 hr (FIG. 6)
Protocol: Peripheral white blood cells were isolated from healthy volunteers and treated ex vivo with MGCD0103 at indicated doses for 24 hr or 48 hr. RNA was extracted to monitor MT3 mRNA level by conventional semi-quantitative PCR (normalized to β-actin).
Whole blood from either consenting healthy volunteers or consenting patients was centrifuged at 2500 rpm for 10 minutes at ambient temperature in a Sorvall RT-7 centrifuge (Mandel Scientific Co., Guelph, Ontario). Plasma was removed and buffy coat was collected. Five volumes of Erythrocyte Lysis Buffer (EL) (Qiagen Canada Inc., Mississauga, Ontario) were added into buffy coat. Buffy coat was incubated on ice for 20 minutes before it was centrifuged at 400 g for 10 minutes at 4° C. Supernatant was removed and buffy coat was washed twice with EL buffer and re-centrifuged. Buffy coat was resuspended in RPMI media and cells were counted with trypan blue exclusion. To isolate PBMCs, buffy coat cells were centrifuged over Lymphoprep (Axis-Shield, 1114544), and any remaining erythrocytes in the sample were lysed by treatment with EL lysis buffer (Qiagen, 79217). The cell pellets are washed and then re-suspended in RPMI containing 10% FBS.
RNA was extracted from 8×10^6 cells using the Qiagen RNeasy Mini kit (cat#74106, Qiagen, Missisauga Ont.) following the manufacturer's instructions. […]

[2] = test system: H4 acetylation in human H460 tumors; test: H4Ac immunoblot analysis of H460 tumors in nude mice; type: in vivo, nude mice (Balb/c); conditions: 100 mg/kg oral, immunoblot normalized to total histones (FIG. 5B)
Protocol: FIG. 5 Induction of MT3 and p21 in implanted human NSCLC H460 tumors in vivo in nude mice. Nude mice (Balb/c) bearing human H460 tumors were treated with 100 mg/kg MGCD0103 or 0.5% HEC (Vehicle) by oral administration. After 6 h or 24 h, three mice from each group were sacrificed, their tumors harvested and analyzed. Panel A: p21 and MT3 RNA levels quantified by conventional semi-quantitative PCR, normalized to β-actin. Panel B: H4Ac level detected by immunoblot analysis, normalized to total histones.
Human non-small cell lung carcinoma NSCLC-H460 cells (2 million) were injected subcutaneously in the animal flank and allowed to form solid tumors. Tumor fragments were passaged in animals for a minimum of three times before their use. Tumor fragments (about 30 mg) were implanted subcutaneously through a small surgical incision under general anesthesia to Balb/cA female nude mice (6-8 weeks old). Recipient animals were treated with either vehicle (0.1 N HCl) or MGCD0103 (2HBr salt, in 0.1 N HCl) 100 mg/kg orally. Tumors were harvested after one dose of either 6 hour or 24 hours post administration of vehicle or MGCD0103. Each experimental group contained 3 animals. Tumor tissues were deposited in RNAlater (Qiagen, Missisauga Ontario) for total RNA extraction.

IL-6 and IL-8 = test: Cytokine antibody array of patient plasma; type: in vivo, human; conditions: two leukemia patients treated orally; cytokine antibody array (FIG. 16)
Protocol: FIG. 16 Induction of IL-6 and IL-8 expression in plasma from two leukemia patients treated with MGCD0103 orally in vivo, as determined by cytokine antibody array.
Human patients with either solid tumors or leukemia/MDS diseases were enrolled in phase I studies with consensus forms. MGCD0103 were dosed into patients orally every other day (day 1, day 3, day 5 […]). Blood samples were withdrawled by using the Vacutainer sodium-heparin blood collection tubes (Becton Dickinson Laboratories, Franklin Lakes, N.J.) and shipped to the test site within 24 hours on ice-pack. Baseline samples were drawn immediately prior to the first drug dose, while the 24 hour samples were drawn at 24 hours post the first drug dose. The 48 hours samples were drawn at 48 hours post the first dose. For the 1 week samples, blood was drawn 72 hours after day 5 dose (3 accumulated doses during week 1).
10 ml blood from patients were centrifuged at 2500 RPM for 10 min at 10° C. […] The levels of cytokines in the plasma were determined using the TranSignal Human Cytokine Antibody Array 1.0 (Cat#MA6120, Panomics Inc. Redwood City, Calif.) following the manufacturer's instructions. […] Blots were developed by autoradiography, scanned and quantitated using the Cyclone Software. Data was calculated, plotted using Excel and expressed as fold induction from Day 8 following treatment over baseline Day 0 samples.

Jurkat-T leukemic cells = test: RT-PCR of MT3 transcription in Jurkat-T cells; type: cell-based, human; conditions: 16 h, semi-quantitative RT-PCR (FIG. 2)
Protocol: RNA was extracted from 8×10^6 cells using the Qiagen RNeasy Mini kit (cat#74106, Qiagen, Missisauga Ont.) following the manufacturer's instructions. RT reaction was performed using the Expand Reverse Transcriptase kit from Roche (Cat#1 785 834 Roche Applied Biosciences, Laval, Que) with 1 μg total RNA together with 1 μl oligo(dT) primer (cat#y01212, Invitrogen-Canada, Burlington, Ont). cDNA was synthesized using an Eppendorf Mastercycler gradient PCR apparatus (Brinkmann Instruments Canada LTD., Mississauga, Ontario), using a two cycle protocol. For the 1st cycle reaction mixture (0.5 μl H2O, 4 μl of 5× Buffer, 2 μl DTT, 2 ul of 10 mM dNTPs, 0.5 μl RNAsin (cat#N211B, Promega, Fisher Scientific, Whitby, Ont.) and […] of the Expand Reverse Transcriptase (Cat#1785834, Roche, Laval, Quebec)) was incubated at 65° C. for 10 minutes and then set on ice. A second cycle was performed at 42° C. for 1 hour. The resulting cDNA products were kept at 4° C. until used.
One ul of the resulting cDNA was used for every amplification reaction with 18.9 ul H2O, 1.25 ul of 10 mM dNTPs, 0.5 ul of each primer pair, 2.5 ul of 10× Buffer. The PCR reaction was carried out in an Eppendorf Mastercycler gradient. The sequences of the primers used for the amplification of selected biomarkers, as well as the details of the PCR reaction cycles are featured below. […]

Question: For Nc1ccccc1NC(=O)c1ccc(CNc2nccc(-c3cccnc3)n2)cc1 [MGCD0103], which “Induction of MT3 transcription ex vivo” value [1] is on record?
Answer: time-dependent and dose-dependent

Question: What about the “H4 acetylation in tumors” value [2] of the same molecule?
Answer: detectable only after 6 h of treatment

Question: And the “induction of IL-6 and IL-8 expression in plasma” value (IL-6 and IL-8)?
Answer: induction

Question: And the “Dose-dependent induction of MT3 transcription” value (Jurkat-T leukemic cells)?
Answer: Dose-dependent induction
